Test results: paper PMC8305236, “New Broth Macrodilution Volatilization Method for Antibacterial Susceptibility Testing of Volatile Agents and Evaluation of Their Toxicity Using Modified MTT Assay In Vitro” (Molecules, 2021)
In brackets after ≈: the same amount, converted by molar mass. Like-named read-outs stand apart in the source and are kept apart here.

How the values were obtained:
respiratory pathogens = assay: broth macrodilution volatilization method, all four bacteria together; format: cell-based; details: mean value of minimal inhibitory concentrations in broth medium
From the text: (§1) The following four bacterial standard strains from the American Type Culture Collection (ATCC, Manassas, VA, USA) were used: Haemophilus influenzae ATCC 49247, Staphylococcus aureus ATCC 29213, Streptococcus pneumoniae ATCC 49619, and Streptococcus pyogenes ATCC 19615. Cultivation and assay media (broth/agar) were Mueller–Hinton (MH) complemented by Haemophilus Tested Medium (H. influenzae), MH (S. aureus), and Brain Heart Infusion (S. pneumoniae and S. pyogenes). The pH of the broths was equilibrated to a final value of 7.6 using Trizma base (Sigma-Aldrich, Praha, Czech Republic). […] cultivation media were purchased from Oxoid (Basingstoke, UK).
(§2) Stock cultures of bacterial strains were cultivated in broth medium at 37 °C for 24 h prior to testing. For the preparation of inoculum, the turbidity of the bacterial suspension was adjusted to 0.5 McFarland standard using a Densi-La-Meter II (Lachema, Brno, Czech Republic) to obtain a final concentration of 10^8 CFU/mL.
The antibacterial potential of volatile plant-derived compounds in the liquid and vapor phases was determined using a newly developed broth macrodilution volatilization method performed in standard 2 mL microtubes with snap caps (Eppendorf, Hamburg, Germany). Initially, each sample of compound was dissolved in DMSO at maximum concentration of 1% and diluted in the appropriate broth medium. […] After incubation at 37 °C for 24 h, the MICs were evaluated by the visual assessment of bacterial growth after coloring metabolically active bacterial colonies with MTT dye. The respective volumes of 30 and 375 µL of MTT at a concentration of 600 µg/mL were pipetted into the caps and in the microtubes when the interface of color change from yellow to purple (relative to that of colors in control wells) was recorded in broth and agar (Figure 3c). […] The MIC values were determined as the lowest concentrations that inhibited bacterial growth compared with the compound-free control and are expressed in µg/mL. […]

mouse fibroblasts = system: mouse fibroblasts; set-up: method as in PMID 17080016; details: cited from earlier work
S. aureus [1] = details: cited from earlier work
[2] = system: Streptococcus pyogenes ATCC 19615; assay: broth macrodilution volatilization method (liquid and vapor phase MIC); format: cell-based; details: for MIC: Streptococcus pyogenes, ATCC19615
From the text: as §1, §2
(§3) The antibacterial potential of volatile plant-derived compounds in the liquid and vapor phases was determined using a newly developed broth macrodilution volatilization method performed in standard 2 mL microtubes with snap caps (Eppendorf, Hamburg, Germany). Initially, each sample of compound was dissolved in DMSO at maximum concentration of 1% and diluted in the appropriate broth medium. […] The concentration of β-thujaplicin started from 1024 µg/mL and from 128 µg/mL for thymohydroquinone and thymoquninone. In the second step, 90 µL of melted agar was pipetted into rims on the caps (Figure 3a) and inoculated with 5 µL of bacterial suspension after agar solidification. Subsequently, the appropriate concentrations of each sample previously prepared in test tubes were pipetted into microtubes in a final volume of 1500 µL. Then, the microtubes were inoculated with 10 µL of bacterial suspension and closed properly (Figure 3b). Microtubes containing inoculated and non-inoculated media were prepared as growth and purity controls simultaneously. After incubation at 37 °C for 24 h, the MICs were evaluated by the visual assessment of bacterial growth after coloring metabolically active bacterial colonies with MTT dye. The respective volumes of 30 and 375 µL of MTT at a concentration of 600 µg/mL were pipetted into the caps and in the microtubes when the interface of color change from yellow to purple (relative to that of colors in control wells) was recorded in broth and agar (Figure 3c). […] The MIC values were determined as the lowest concentrations that inhibited bacterial growth compared with the compound-free control and are expressed in µg/mL. In the case of the vapor phase, the concentration was also expressed in µg/cm^3 as the weight of the volatile agent per volume unit of a microtube. […] The respective susceptibilities of H. influenzae, S. aureus, S. pneumoniae, and S. pyogenes to ampicillin, oxacillin, amoxicillin, and tetracycline were checked as positive antibiotic controls. All tests were performed as three independent experiments, each carried out in triplicate, and the results were presented as median/modal values. According to the widely accepted norm in MIC testing, the mode and median were used for the final value calculation when triplicate endpoints were within the two- and three-dilution ranges, respectively.

[3] = system: Streptococcus pneumoniae ATCC 49619; assay: as above; format: cell-based; details: for MIC: Streptococcus pneumoniae, ATCC49619
From the text: as §1, §2, §3

[4] = system: Staphylococcus aureus ATCC 29213; assay: as above; format: cell-based
From the text: as §1, §2, §3

[5] = system: Haemophilus influenzae ATCC 49247; assay: as above; format: cell-based
From the text: as §1, §2, §3

[6] = system: normal lung fibroblast cells MRC-5; assay: modified MTT cytotoxicity assay; details: for IC50: Homo sapiens, MRC5, 72 h, read-out: IC50 ± SD; for level of cytotoxic effect (WHO classification): classified by IC50 in lung fibroblast cells; for TI: therapeutic index, TI = IC80/x¯ -MIC
Procedure: (§4) Lung fibroblast cell line MRC-5, obtained from ATCC, was propagated in Eagle’s Minimum Essential Medium (EMEM) supplemented with 10% fetal bovine serum (FBS), 2 mM glutamine, 10 µL/mL non-essential amino acids, and 1% penicillin–streptomycin solution (10,000 units/mL of penicillin and 10 mg/mL of streptomycin); all these components were purchased from Sigma-Aldrich. The cells were pre-incubated in 96-well microtiter plates at a density of 2.5 × 10^3 cells per well for 24 h at 37 °C in a humidified incubator in an atmosphere of 5% CO2 in air.
(§5) A modified method based on the metabolization of MTT to blue formazan by mitochondrial dehydrogenases in living lung cells previously described by Mosmann was used. The lung fibroblast cells were treated for 72 h with the tested compounds dissolved in DMSO at a maximum concentration of 1% and diluted in the EMEM medium supplemented with 10% FBS. Twelve two-fold serially diluted concentrations of these agents ranging from 512 to 0.25 µg/mL were prepared. The microtiter plates were covered with EVA capmats^TM at 37 °C in a humidified atmosphere of 5% CO2 in air and cultivated for 72 h. Thereafter, MTT reagent (1 mg/mL) in EMEM solution was added to each well and the plates were incubated for an additional 2 h at 37 °C in a humidified atmosphere of 5% CO2 in air. The media were removed, and the intracellular formazan product was dissolved in 100 µL of DMSO. […] The absorbance was measured at 555 nm using a Tecan Infinite M200 spectrometer (Tecan Group, Mannedorf, Switzerland), and the viability was calculated in comparison to that of the untreated control. Three independent experiments (two replicates each) were performed for each test. […] Furthermore, IC80 was calculated as equivalent to the MIC endpoint for comparison of microbiological and toxicological data. Therapeutic indices (TIs) were defined as the ratio of x¯ -IC80 and x¯ -MIC values with the aim of determining the amount of effective antibacterial agents with the quantity causing toxicity.

[7] = modified MTT cytotoxicity assay; details: human
Procedure: as §4, §5

H. influenzae = system: H. influenzae; set-up: method as in PMID 28223069; details: cited from earlier work
S. aureus [8] = system: S. aureus; set-up: method as in PMID 28223069; details: cited from earlier work
[9] = system: healthy human lung MRC-5 cell lines; set-up: method as in PMID 28223069; details: cited from earlier work
S. pneumoniae [10] = system: S. pneumoniae; set-up: method as in PMID 28223069; details: cited from earlier work
[11] = system: Trichophyton mentagrophytes; set-up: method as in PMID 16648950; details: disc volatilization method; cited from earlier work
[12] = system: normal IMR-90 lung fibroblasts; set-up: method as in PMID 20711342; details: at a concentration of 32.84 µg/mL; cited from earlier work
[13] = system: human lung cancer tissues; set-up: method as in PMID 25105411, doi:10.1177/1934578X1801301223, doi:10.15324/kjcls.2019.51.2.221; details: various types of human lung cancer tissues; cited from earlier work
S. pneumoniae [14] = system: S. pneumoniae; set-up: method as in PMID 31106894; details: cited from earlier work
oral microorganisms = system: oral microorganisms; set-up: method as in PMID 27681039; details: disc volatilization method; cited from earlier work
S. pyogenes = system: S. pyogenes; set-up: method as in PMID 31106894; details: cited from earlier work
[15] = liquid phase, 37 °C, 24 h, read-out: Minimal Inhibitory Concentration, Broth
[16] = vapor phase, 37 °C, 24 h, read-out: Minimal Inhibitory Concentration, Agar
[17] = vapor phase, weight of volatile agent per volume unit of microtube, read-out: Minimal Inhibitory Concentration, Agar
[18] = ATCC29213, liquid phase, 37 °C, 24 h, read-out: Minimal Inhibitory Concentration, Broth
[19] = ATCC29213, vapor phase, 37 °C, 24 h, read-out: Minimal Inhibitory Concentration, Agar
[20] = ATCC29213, vapor phase, weight of volatile agent per volume unit of microtube, read-out: Minimal Inhibitory Concentration, Agar
[21] = MRC-5 normal lung fibroblast cells
[22] = ATCC49247, liquid phase, 37 °C, 24 h, read-out: Minimal Inhibitory Concentration, Broth
[23] = ATCC49247, vapor phase, 37 °C, 24 h, read-out: Minimal Inhibitory Concentration, Agar
[24] = ATCC49247, vapor phase, weight of volatile agent per volume unit of microtube, read-out: Minimal Inhibitory Concentration, Agar

SMILES | x¯ -MIC (respiratory pathogens) [µg/mL] | MIC [2, 15] [µg/mL] | MIC [2, 16] [µg/mL] | MIC [2, 17] [µg/mL] | MIC [3, 15] [µg/mL] | MIC [3, 16] [µg/mL] | MIC [3, 17] [µg/mL] | MIC [4, 18] [µg/mL] | MIC [4, 19] [µg/mL] | MIC [4, 20] [µg/mL] | IC50 [6] [µg/mL] | level of cytotoxic effect (WHO classification) [6] | TI [6] | IC80 at 72 h [7, 21] [µg/mL] | MIC [5, 22] [µg/mL] | MIC [5, 23] [µg/mL] | MIC [5, 24] [µg/mL] | further results
Cc1cc(O)c(C(C)C)cc1O [thymohydroquinone] | 15 | 32 (≈ 193 µM) | 32 (≈ 193 µM) | 20 (≈ 120 µM) | 16 (≈ 96.3 µM) | 32 (≈ 193 µM) | 20 (≈ 120 µM) | 8 (≈ 48.1 µM) | 16 (≈ 96.3 µM) | 10 (≈ 60.2 µM) | 2.64 ± 0.33 (≈ 15.9 µM) | moderate toxicity | >34.13 | > 512 | – | – | – | cell growth inhibition (mouse fibroblasts; at 10 µg/mL): 21%; cell growth inhibition (mouse fibroblasts; at 100 µg/mL): 63%; MIC (S. aureus [1]; S. aureus ATCC 25923): 400 µg/mL (≈ 2410 µM); MIC ([5]; ATCC49247, 24 h, read-out: Minimal Inhibitory Concentration, Agar): 8 µg/mL (≈ 48.1 µM); MIC ([5]; ATCC49247, 24 h, read-out: Minimal Inhibitory Concentration, Broth): 4 µg/mL (≈ 24.1 µM); MIC ([5]; ATCC49247, read-out: Minimal Inhibitory Concentration, Agar): 5 µg/mL (≈ 30.1 µM)
CC1=CC(=O)C(C(C)C)=CC1=O [thymoquinone] | 15 | 32 (≈ 195 µM) | 32 (≈ 195 µM) | 20 (≈ 122 µM) | 16 (≈ 97.4 µM) | 16 (≈ 97.4 µM) | 10 (≈ 60.9 µM) | 8 (≈ 48.7 µM) | 16 (≈ 97.4 µM) | 10 (≈ 60.9 µM) | 1.21 ± 0.24 (≈ 7.37 µM) | toxic | 1.00 | 15 ± 4.46 (≈ 91.3 µM) | 4 (≈ 24.4 µM) | 8 (≈ 48.7 µM) | 5 (≈ 30.4 µM) | MIC, liquid phase (H. influenzae; liquid phase): 8 µg/mL (≈ 48.7 µM); MIC, vapor phase (H. influenzae; vapor phase): 8 µg/mL (≈ 48.7 µM); MIC, liquid phase (S. aureus [8]; liquid phase): 16 µg/mL (≈ 97.4 µM); MIC, vapor phase (S. aureus [8]; vapor phase): 16 µg/mL (≈ 97.4 µM); IC50 [9]: 1.70 µg/mL (≈ 10.4 µM); MIC (S. aureus [1]; S. aureus ATCC 29213 and ATCC 25923): 8 µg/mL (≈ 48.7 µM); MIC, liquid phase (S. pneumoniae [10]; liquid phase): 16 µg/mL (≈ 97.4 µM); MIC, vapor phase (S. pneumoniae [10]; vapor phase): 32 µg/mL (≈ 195 µM); vapor activity [11]: very potent vapor activity; effect on viability [12]: did not alter the viability
CCC1=C[C@@H]2CN(C1)Cc1c([nH]c3ccccc13)[C@@](C(=O)OC)(c1cc3c(cc1OC)N(C)[C@H]1[C@@](O)(C(=O)OC)[C@H](OC(C)=O)[C@]4(CC)C=CCN5CC[C@]31[C@@H]54)C2 [vinorelbin, reference compound] | – | – | – | – | – | – | – | – | – | – | – | – | – | – | – | – | – | IC80 ± SD ([6]; 80% inhibitory concentration of proliferation, 72 h, plates sealed with EVA capmat): >10 µg/mL; IC50 ± SD ([6]; half maximal inhibitory concentration of proliferation, 72 h, plates sealed with EVA capmat): 0.54 ± 0.26 µg/mL (≈ 0.693 µM)
CC(C)c1cccc(=O)c(O)c1 [β-thujaplicin] | 64 | 64 (≈ 390 µM) | 1020 (≈ 6240 µM) | 640 (≈ 3900 µM) | 64 (≈ 390 µM) | 1020 (≈ 6240 µM) | 640 (≈ 3900 µM) | 64 (≈ 390 µM) | 512 (≈ 3120 µM) | 320 (≈ 1950 µM) | 4.15 ± 0.45 (≈ 25.3 µM) | moderate toxicity | 3.36 | – | 64 (≈ 390 µM) | 512 (≈ 3120 µM) | 320 (≈ 1950 µM) | IC50 [13]: 0.26 to 12.32 µg/mL; MIC (S. pneumoniae [14]): 0.3 to 1 µg/mL; growth-inhibitory effect in the gaseous phase (oral microorganisms): certain level of growth-inhibitory effect; MIC (S. aureus [1]; various strains of S. aureus): 12.5 to 160 µg/mL; MIC (S. pyogenes): 0.3 to 1 µg/mL; Minimal Inhibitory Concentration, Agar ([2]; vapor phase, 37 °C, 24 h): low antibacterial efficacy; Minimal Inhibitory Concentration, Agar ([3]; vapor phase, 37 °C, 24 h): low antibacterial efficacy; IC80 at 72 h [7]: 215 ± 9.71 µg/mL (≈ 1310 µM)
